This test addresses Recombinant human factor D (Homo sapiens (Human), UniProt P00746). The test is described as follows: Human Complement Factor D Assay: Method 1. In kind it is biochemical. As to conditions: 10 nM factor D, substrate Z-Lys-thiobenzyl, fluorescence readout, read-out: IC50 (μM), Factor D inhibition. How it is done: Human Complement Factor D Assay: Method 1
Recombinant human factor D (expressed in E. coli and purified using standard methods) at 10 nM concentration is incubated with test compound at various concentrations for 1 hour at room temperature in 0.1 M Hepes buffer, pH 7.5, containing 1 mM MgCl2, 1 M NaCl and 0.05% CHAPS. A synthetic substrate Z-Lys-thiobenzyl and 2,4-dinitrobenzenesulfonyl-fluoresceine are added to final concentrations of 200 μM and 25 μM, respectively. The increase in fluorescence is recorded at excitation of 485 nm and emission at 535 nm in a microplate spectrofluorimeter. IC50 values are calculated from percentage of inhibition of complement factor D-activity as a function of test compound concentration.

Sequence of Recombinant human factor D (P00746 26-253): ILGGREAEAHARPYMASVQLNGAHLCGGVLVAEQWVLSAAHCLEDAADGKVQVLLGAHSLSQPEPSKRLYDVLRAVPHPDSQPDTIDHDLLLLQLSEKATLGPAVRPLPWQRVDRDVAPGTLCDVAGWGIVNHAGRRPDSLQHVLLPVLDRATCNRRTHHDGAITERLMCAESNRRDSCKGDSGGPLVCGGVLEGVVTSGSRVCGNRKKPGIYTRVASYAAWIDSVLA

In the case of `CC(=O)c1nn(CC(=O)N2[C@@H]3C[C@@H]3C[C@H]2C(=O)NCC(O)C(F)(F)F)c2ncccc12` (stereo partly drawn) [Example 40, (1R,3S,5R)-2-[2-(3-Acetyl-pyrazolo[3,4-b]pyridin-1-yl)-acetyl]-2-aza-bicyclo [3.1.0]hexane-3-carboxylic acid (3,3,3-trifluoro-2-hydroxy-propyl)-amide], the IC50 was found to be 10.8 µM.

As for `CO[C@H]1[C@@H](C(=O)NCCC(C)(C)C)N(C(=O)Cn2nc(C(N)=O)c3ccccc32)C[C@@H]1F` [Example 3, 1-{2-[(2S,3S,4S)-2-(3,3-Dimethyl-butylcarbamoyl)-4-fluoro-3-methoxy-pyrrolidin-1-yl]-2-oxo-ethyl}-1H-indazole-3-carboxylic acid amide], the IC50 was 0.103 µM.

Turning to `CCNC(=O)[C@@H]1C[C@H]2C[C@H]2N1C(=O)Cn1nc(C(N)=O)c2ccncc21` [Example 12, 1-[2-((1R,3S,5R)-3-Ethylcarbamoyl-2-aza-bicyclo [3.1.0]hex-2-yl)-2-oxo-ethyl]-1H-pyrazolo[3,4-c]pyridine-3-carboxylic acid amide], the IC50 came out at 7.22 µM.

On to `CC(=O)c1nn(CC(=O)N2[C@@H]3C[C@@H]3C[C@H]2C(=O)NCCCOC(F)(F)F)c2ccccc12` [Example 2, (1R,3S,5R)-2-[2-(3-Acetyl-indazol-1-yl)-acetyl]-2-aza-bicyclo[3.1.0]hexane-3-carboxylic acid (3-trifluoromethoxy-propyl)-amide], for which the IC50 amounted to 0.605 µM.

For the compound `NC(=O)n1cc(NC(=O)N2[C@@H]3C[C@@H]3C[C@H]2C(=O)NCCCCOC(F)(F)F)c2ccccc21` [Example 26, (1R,3S,5R)-2-Aza-bicyclo [3.1.0]hexane-2,3-dicarboxylic acid 2-[(1-carbamoyl-1H-indol-3-yl)-amide] 3-[(4-trifluoromethoxy-butyl)-amide]], the IC50 amounted to 1.39 µM.

Take `NC(=O)n1cc(NC(=O)N2[C@@H]3C[C@@H]3C[C@H]2C(=O)NCCCOC(F)(F)F)c2ccccc21` [Example 25, (1R,3S,5R)-2-Aza-bicyclo [3.1.0]hexane-2,3-dicarboxylic acid 2-[(1-carbamoyl-1H-indol-3-yl)-amide] 3-[(3-trifluoromethoxy-propyl)-amide]]: the IC50 was found to be 0.912 µM.

Take `CC(C)(C)C(O)CNC(=O)[C@@H]1C[C@H]2C[C@H]2N1C(=O)Cn1nc(C(N)=O)c2ccccc21` (stereo partly drawn) [Example 33, 1-{2-[(1R,3S,5R)-3-(2-Hydroxy-3,3-dimethyl-butylcarbamoyl)-2-aza-bicyclo [3.1.0]hex-2-yl]-2-oxo-ethyl}-1H-indazole-3-carboxylic acid amide]: the IC50 came to 0.271 µM.

As for `CC(=O)c1nn(CC(=O)N2[C@@H]3C[C@@H]3C[C@H]2C(=O)NCCC(C)(C)C)c2cnccc12` [Example 7, (1R,3S,5R)-2-[2-(3-Acetyl-pyrazolo[3,4-c]pyridin-1-yl)-acetyl]-2-aza-bicyclo[3.1.0] hexane-3-carboxylic acid (3,3-dimethyl-butyl)-amide], the IC50 amounted to 0.068 µM.

Turning to `CC(=O)c1nn(CC(=O)N2[C@@H]3C[C@@H]3C[C@H]2C(=O)NC(C)C)c2ccc(OCc3ncccn3)cc12` [Example 20, (1R,3S,5R)-2-{2-[3-Acetyl-5-(pyrimidin-2-ylmethoxy)-indazol-1-yl]-acetyl}-2-aza-bicyclo[3.1.0]hexane-3-carboxylic acid isopropyl amide], the IC50 was found to be 0.328 µM.

For `CC(=O)c1nn(CC(=O)N2[C@@H]3C[C@@H]3C[C@H]2C(=O)NCCC(C)(C)C)c2ncccc12` [Example 29, (1R,3S,5R)-2-[2-(3-Acetyl-pyrazolo[3,4-b]pyridin-1-yl)-acetyl]-2-aza-bicyclo[3.1.0] hexane-3-carboxylic acid (3,3-dimethyl-butyl)-amide], the IC50 was found to be 0.227 µM.

For `CC(C)(C)CCNC(=O)[C@@H]1C[C@H]2C[C@H]2N1C(=O)Cn1nc(C(N)=O)c2ccncc21` [Example 6, 1-{2-[(1R,3S,5R)-3-(3,3-Dimethyl-butylcarbamoyl)-2-aza-bicyclo[3.1.0]hex-2-yl]-2-oxo-ethyl}-1H-pyrazolo[3,4-c] pyridine-3-carboxylic acid amide], the 50% inhibitory concentration (IC50) turned out to be 0.168 µM.

For the compound `CC(C)(C)C(F)CNC(=O)[C@@H]1C[C@H]2C[C@H]2N1C(=O)Cn1nc(C(N)=O)c2ccccc21` (stereo partly drawn) [Example 44, 1-{2-[(1R,3S,5R)-3-(2-Fluoro-3,3-dimethyl-butylcarbamoyl)-2-aza-bicyclo[3.1.0]hex-2-yl]-2-oxo-ethyl}-1H-indazole-3-carboxylic acid amide], the IC50 was 0.384 µM.

In the case of `CC(=O)c1nn(CC(=O)N2[C@@H]3C[C@@H]3C[C@H]2C(=O)NCCOC(F)(F)C(F)(F)F)c2ccc(OCc3ncccn3)cc12` [Example 16, (1R,3S,5R)-2-{2-[3-Acetyl-5-(pyrimidin-2-ylmethoxy)-indazol-1-yl]-acetyl}-2-aza-bicyclo[3.1.0]hexane-3-carboxylic acid (2-penta fluoroethyloxy-ethyl)-amide], the IC50 was 0.152 µM.

With `CC[C@H](C)NC(=O)[C@@H]1C[C@H]2C[C@H]2N1C(=O)Cn1nc(C(C)=O)c2cc(OCc3ncccn3)ccc21` [Example 19, (1R,3S,5R)-2-{2-[3-Acetyl-5-(pyrimidin-2-ylmethoxy)-indazol-1-yl]-acetyl}-2-aza-bicyclo[3.1.0]hexane-3-carboxylic acid ((S)-sec-butyl)-amide], the concentration for half-maximal inhibition (IC50) was 0.929 µM.

For the compound `CCNC(=O)[C@@H]1C[C@H]2C[C@H]2N1C(=O)Nc1cn(C(N)=O)c2ccccc12` [Example 24, (1R,3S,5R)-2-Aza-bicyclo [3.1.0]hexane-2,3-dicarboxylic acid 2-[(1-carbamoyl-1H-indol-3-yl)-amide] 3-ethylamide], the IC50 was determined as 1.75 µM.

As to `NC(=O)n1cc(NC(=O)N2[C@@H]3C[C@@H]3C[C@H]2C(=O)NCCOC(F)(F)C(F)(F)F)c2ccccc21` [Example 27, (1R,3S,5R)-2-Aza-bicyclo [3.1.0]hexane-2,3-di arboxylic acid 2-[(1-carbamoyl-1H-indol-3-yl)-amide] 3-[(2-pentafluoroethyloxy-ethyl)-amide]], the half-maximal inhibitory concentration (IC50) stood at 1.97 µM.

In the case of `CC(=O)c1nn(CC(=O)N2[C@@H]3C[C@@H]3C[C@H]2C(=O)NCCC(F)(F)F)c2cnccc12` [Example 39, (1R,3S,5R)-2-[2-(3-Acetyl-pyrazolo[3,4-c]pyridin-1-yl)-acetyl]-2-aza-bicyclo [3.1.0]hexane-3-carboxylic acid (3,3,3-trifluoro-propyl)-amide], the IC50 turned out to be 5.32 µM.

For `CCNC(=O)[C@@H]1C[C@H]2C[C@H]2N1C(=O)Cn1nc(C(N)=O)c2cc(OCc3ncccn3)ccc21` [Example 18, 1-[2-((1R,3S,5R)-3-Ethylcarbamoyl-2-aza-bicyclo[3.1.0]hex-2-yl)-2-oxo-ethyl]-5-(pyrimidin-2-ylmethoxy)-1H-indazole-3-carboxylic acid amide], the IC50 was 2.89 µM.

For `CC[C@@H](C)NC(=O)[C@@H]1C[C@H]2C[C@H]2N1C(=O)Cn1nc(C(C)=O)c2cc(OCc3ncccn3)ccc21` [Example 17, (1R,3S,5R)-2-{2-[3-Acetyl-5-(pyrimidin-2-ylmethoxy)-indazol-1-yl]-acetyl}-2-aza-bicyclo[3.1.0]hexane-3-carboxylic acid ((R)-sec-butyl)-amide], the IC50 worked out at 0.333 µM.

In the case of `CC(=O)c1nn(CC(=O)N2[C@@H]3C[C@@H]3C[C@H]2C(=O)NCCC(C)C)c2ncccc12` [Example 30, (1R,3S,5R)-2-[2-(3-Acetyl-pyrazolo[3,4-b]pyridin-1-yl)-acetyl]-2-aza-bicyclo[3.1.0] hexane-3-carboxylic acid (3-methyl-butyl)-amide], the IC50 is 0.324 µM.

Consider `CC(C)(C)CCNC(=O)[C@@H]1C[C@H]2C[C@H]2N1C(=O)Nc1cn(C(N)=O)c2ccccc12` [Example 21, (1R,3S,5R)-2-Aza-bicyclo[3.1.0]hexane-2,3-dicarboxylic acid 2-[(1-carbamoyl-1H-indol-3-yl)-amide]3-[(3,3-dimethyl-butyl)-amide]], for which the IC50 was determined as 0.058 µM.

As to `NC(=O)n1cc(NC(=O)N2[C@@H]3C[C@@H]3C[C@H]2C(=O)NCCOC(F)(F)F)c2ccccc21` [Example 23, (1R,3S,5R)-2-Aza-bicyclo [3.1.0]hexane-2,3-dicarboxylic acid 2-[(1-carbamoyl-1H-indol-3-yl)-amide] 3-[(2-trifluoromethoxy-ethyl)-amide]], the IC50 amounted to 0.427 µM.

For `CC(C)(C)C[C@H](CO)NC(=O)[C@@H]1C[C@H]2C[C@H]2N1C(=O)Cn1nc(C(N)=O)c2ccccc21` [Example 42, 1-{2-[(1R,3S,5R)-3-((R)-1-Hydroxymethyl-3,3-dimethyl-butylcarbamoyl)-2-aza-bicyclo[3.1.0]hex-2-yl]-2-oxo-ethyl}-1H-indazole-3-carboxylic acid amide], the IC50 was 5.36 µM.

Source of the values: patent US9388199B2, “Pyrrolidine derivatives and their use as complement pathway modulators” (priority 2012, dated 2016).
